Drawing on patent US20240208986A1, “PHENYL AZEPINES AS RIPK1 INHIBITORS AND METHODS OF USE THEREOF” (Merck Sharp & Dohme LLC, priority 2021, published 2024), this text covers IC50 for 29 compounds.

The target in the assay is RIPK1 (recombinant GST-RIPK1 kinase domain, residues 1-327) (Homo sapiens (Human), UniProt Q13546). Put plainly: RIPK1-ADP-Glo Enzymatic Assay. The format is biochemical. To be noted: 25 nM GST-RIPK1, 300 μM ATP, 3 μM dephosphorylated-MBP; 30 minutes pre-incubation, 150 minutes reaction; ten-point titration. As for the experimental part:
The enzymatic activity of RIPK1 is measured using an assay derived from ADP-Glo kit (™Promega), which provides a luminescent-based ADP detection system. Specifically, the ADP generated by RIPK1 kinase is proportionally detected as luminescent signals in a homogenous fashion. In this context, the assessment of the inhibitory effect of small molecules (EC50) is measured by the effectiveness of the compounds to inhibit the ATP to ADP conversion by RIPK1.
In this assay, the potency (EC50) of each compound was determined from a ten-point (1:3 serial dilution; top compound concentration of 100000 nM) titration curve using the following outlined procedure. To each well of a white ProxiPlus 384 well-plate, 30 nL of compound (1% DMSO in final assay volume of 3 μL) was dispensed, followed by the addition of 2 μL of 1× assay buffer (25 mM Hepes 7.3, 20 mM MgCl2, 50 mM NaCl, 1 mM DTT, 0.005% Tween20, and 0.02% BSA) containing 37.5 nM of GST-RIPK1 (recombinant GST-RIPK1 kinase domain (residues 1-327) enzyme produced from baculovirus-transfected Sf21 cells: MW=62 kDa). Plates were placed in an ambient temperature humidified chamber for a 30 minutes pre-incubation with compound. Subsequently, each reaction was initiated by the addition of 1 μL 1× assay buffer containing 900 μM ATP and 3 μM dephosphorylated-MBP substrate. The final reaction in each well of 3 μL consists of 25 nM of GST-RIPK1, 300 μM ATP, and 3 μM dephosphorylated-MBP. Kinase reactions were allowed to proceed for 150 minutes prior to adding ADP-Glo reagents per Promega's outlined kit protocol. Dose-response curves were generated by plotting percent effect (% product conversion; Y-axis) vs. Log10 compound concentrations (X-axis). EC50 values were calculated using a non-linear regression, four-parameters sigmoidal dose-response model.
(In general: In ADP-Glo the light output rises with the ADP produced.)

RIPK1 (recombinant GST-RIPK1 kinase domain, residues 1-327), sequence (Q13546 1-327): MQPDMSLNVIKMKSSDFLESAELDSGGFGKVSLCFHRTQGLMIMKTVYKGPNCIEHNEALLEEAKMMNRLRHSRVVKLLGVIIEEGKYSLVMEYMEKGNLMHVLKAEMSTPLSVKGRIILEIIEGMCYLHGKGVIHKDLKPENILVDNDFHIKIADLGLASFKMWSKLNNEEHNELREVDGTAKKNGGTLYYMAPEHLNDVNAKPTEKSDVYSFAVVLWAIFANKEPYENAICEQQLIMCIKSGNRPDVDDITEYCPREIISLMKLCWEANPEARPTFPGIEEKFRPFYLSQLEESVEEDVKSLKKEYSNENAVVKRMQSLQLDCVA

For orientation: IC50 means the concentration needed to halve the response being measured. `O=C(N1C[C@@H]2C[C@H]1c1ccccc1O2)C12CC(C(F)(F)F)(C1)C2` [Compound 1-52, [(2S,5S)-2,3-dihydro-2,5-methano-1,4-benzoxazepin-4(5H)-yl][3-(trifluoromethyl)bicyclo [1.1.1]pentan-1-yl]methanone]: the IC50 was determined as 199 nM.
For the compound `O=C(N1C[C@@H]2C[C@H]1c1ccccc1O2)C12CCC(C(F)(F)F)(CC1)CC2` [Compound 1-53, [(2S,5S)-2,3-dihydro-2,5-methano-1,4-benzoxazepin-4(5H)-yl][4-(trifluoromethyl)bicyclo [2.2.2]octan-1-yl]methanone], the IC50 was 510 nM.
For `O=C(N1C[C@@H]2C[C@H]1c1ccccc1O2)C12CCC(C(F)F)(CC1)CC2` [Compound 1-54, [4-(difluoromethyl)bicyclo [2.2.2]octan-1-yl][(2S,5S)-2,3-dihydro-2,5-methano-1,4-benzoxazepin-4(5H)-yl]methanone], the IC50 came out at 263 nM.
With `COC(=O)C12CCC(C(=O)N3C[C@@H]4C[C@H]3c3ccccc3O4)(CC1)C2` [Compound 1-55, methyl 4-[(2S,5S)-2,3-dihydro-2,5-methano-1,4-benzoxazepine-4(5H)-carbonyl]bicyclo[2.2.1] heptane-1-carboxylate] the figure was 43 nM.
With `CC(C)(CC#N)C(=O)N1C[C@@H]2C[C@H]1c1ccccc1O2` [Compound 1-57, 4-[(2S,5S)-2,3-dihydro-2,5-methano-1,4-benzoxazepin-4(5H)-yl]-3,3-dimethyl-4-oxobutanenitrile] the figure was 56 nM.
In the case of `COc1ccc(CC(C)(C)C(=O)N2C[C@@H]3C[C@H]2c2ccccc2O3)cc1` [Compound 1-58, 1-[(2S,5S)-2,3-dihydro-2,5-methano-1,4-benzoxazepin-4(5H)-yl]-3-(4-methoxyphenyl)-2,2-dimethylpropan-1-one] it was 887 nM; in that of `CC(C)(C#N)C(=O)N1C[C@@H]2C[C@H]1c1ccccc1O2` [Compound 1-59, 3-[(2S,5S)-2,3-dihydro-2,5-methano-1,4-benzoxazepin-4(5H)-yl]-2,2-dimethyl-3-oxopropanenitrile], 159 nM; in that of `O=C(N1C[C@@H]2C[C@H]1c1ccccc1O2)C12CC(C(F)F)(C1)C2` [Compound 1-60, [3-(difluoromethyl)bicyclo [1.1.1]pentan-1-yl][(2S,5S)-2,3-dihydro-2,5-methano-1,4-benzoxazepin-4(5H)-yl]methanone], 512 nM.
`CC(C)(C(=O)N1C[C@@H]2C[C@H]1c1cc(Cl)ccc1O2)C(F)F` [Compound 2-1, 1-[(2S,5S)-7-chloro-2,3-dihydro-2,5-methano-1,4-benzoxazepin-4(5H)-yl]-3,3-difluoro-2,2-dimethylpropan-1-one]: the IC50 worked out at 61 nM.
In the case of `CC(C)(C(=O)N1C[C@@H]2C[C@H]1c1cc(C#N)ccc1O2)C(F)F` [Compound 2-2, (2S,5S)-4-(3,3-difluoro-2,2-dimethylpropanoyl)-2,3,4,5-tetrahydro-2,5-methano-1,4-benzoxazepine-7-carbonitrile] it was 158 nM; in that of `Cc1ccc2c(c1)[C@@H]1C[C@@H](CN1C(=O)C(C)(C)C(F)F)O2` [Compound 2-3, 3,3-difluoro-2,2-dimethyl-1-[(2S,5S)-7-methyl-2,3-dihydro-2,5-methano-1,4-benzoxazepin-4(5H)-yl]propan-1-one], 143 nM.
With `CC(C)(C)C(=O)N1C[C@@H]2C[C@H]1c1cc(F)cc(F)c1O2` [Compound 2-4, 1-[(2S,5S)-7,9-difluoro-2,3-dihydro-2,5-methano-1,4-benzoxazepin-4(5H)-yl]-2,2-dimethylpropan-1-one] the figure was 60 nM.
With `CC(C)(C)C(=O)N1C[C@@H]2C[C@H]1c1cc(F)ccc1O2` [Compound 2-5, 1-[(2S,5S)-7-fluoro-2,3-dihydro-2,5-methano-1,4-benzoxazepin-4(5H)-yl]-2,2-dimethylpropan-1-one], the IC50 worked out at 34 nM.
With `CC(C)(C)C(=O)N1C[C@@H]2C[C@H]1c1cccc(F)c1O2` [Compound 2-6, 1-[(2S,5S)-9-fluoro-2,3-dihydro-2,5-methano-1,4-benzoxazepin-4(5H)-yl]-2,2-dimethylpropan-1-one], the IC50 is 43 nM.
With `CC(C)(C(=O)N1C[C@@H]2C[C@H]1c1cc(F)ccc1O2)C(F)F` [Compound 2-7, 3,3-difluoro-1-[(2S,5S)-7-fluoro-2,3-dihydro-2,5-methano-1,4-benzoxazepin-4(5H)-yl]-2,2-dimethylpropan-1-one] the figure was 25 nM; with `CC(C)(C(=O)N1C[C@@H]2C[C@H]1c1cccc(F)c1O2)C(F)F` [Compound 2-8, 3,3-difluoro-1-[(2S,5S)-9-fluoro-2,3-dihydro-2,5-methano-1,4-benzoxazepin-4(5H)-yl]-2,2-dimethylpropan-1-one], 20 nM.
In the case of `CC1(C(=O)N2C[C@@H]3C[C@H]2c2cc(F)ccc2O3)CCC1` [Compound 2-9, [(2S,5S)-7-fluoro-2,3-dihydro-2,5-methano-1,4-benzoxazepin-4(5H)-yl](1-methylcyclobutyl)methanone] it was 63 nM; in that of `CC1(C(=O)N2C[C@@H]3C[C@H]2c2cccc(F)c2O3)CCC1` [Compound 2-10, [(2S,5S)-9-fluoro-2,3-dihydro-2,5-methano-1,4-benzoxazepin-4(5H)-yl](1-methylcyclobutyl)methanone], 30 nM.
On to `CC(C)(C(=O)N1C[C@@H]2C[C@H]1c1cc(F)cc(C#N)c1O2)C(F)F` [Compound 2-11, (2S,5S)-4-(3,3-difluoro-2,2-dimethylpropanoyl)-7-fluoro-2,3,4,5-tetrahydro-2,5-methano-1,4-benzoxazepine-9-carbonitrile], for which the IC50 worked out at 26 nM.
With `CC(F)(F)C(C)(C)C(=O)N1C[C@@H]2C[C@H]1c1cccc(F)c1O2` [Compound 2-12, 3,3-difluoro-1-[(2S,5S)-9-fluoro-2,3-dihydro-2,5-methano-1,4-benzoxazepin-4(5H)-yl]-2,2-dimethylbutan-1-one] the figure was 20 nM; with `CC(F)(F)C(C)(C)C(=O)N1C[C@@H]2C[C@H]1c1cc(F)ccc1O2` [Compound 2-13, 3,3-difluoro-1-[(2S,5S)-7-fluoro-2,3-dihydro-2,5-methano-1,4-benzoxazepin-4(5H)-yl]-2,2-dimethylbutan-1-one], 23 nM.
As to `O=C(N1C[C@@H]2C[C@H]1c1cc(F)ccc1O2)C12CCC(CC1)C2` [Compound 2-14, (bicyclo[2.2.1]heptan-1-yl)[(2S,5S)-7-fluoro-2,3-dihydro-2,5-methano-1,4-benzoxazepin-4(5H)-yl]methanone], the IC50 came to 15 nM.
In the case of `O=C(N1C[C@@H]2C[C@H]1c1cccc(F)c1O2)C12CCC(CC1)C2` [Compound 2-15, (bicyclo[2.2.1]heptan-1-yl)[(2S,5S)-9-fluoro-2,3-dihydro-2,5-methano-1,4-benzoxazepin-4(5H)-yl]methanone] it was 24 nM.
In the case of `CC(F)(F)C(C)(C)C(=O)N1C[C@@H]2C[C@H]1c1ccc(Cl)cc1O2` [Compound 2-16, 1-((2S,5S)-8-chloro-2,3-dihydro-2,5-methanobenzo[f][1,4]oxaze-pin-4(5H)-yl)-3,3-difluoro-2,2-dimethylbutan-1-one] it was 35 nM; in that of `CC(C)(C(=O)N1C[C@@H]2C[C@H]1c1cccc(C#N)c1O2)C(F)F` [Compound 2-19, (2S,5S)-4-(3,3-difluoro-2,2-dimethylpropanoyl)-2,3,4,5-tetrahydro-2,5-methano-1,4-benzoxazepine-9-carbonitrile], 18 nM.
In the case of `CC(C)(C(=O)N1C[C@@H]2C[C@H]1c1cccc(Cl)c1O2)C(F)F` [Compound 2-20, 1-[(2S,5S)-9-chloro-2,3-dihydro-2,5-methano-1,4-benzoxazepin-4(5H)-yl]-3,3-difluoro-2,2-dimethylpropan-1-one] it was 52 nM; in that of `CC(C)(C(=O)N1C[C@@H]2C[C@H]1c1ccc(Cl)cc1O2)C(F)F` [Compound 2-21, 1-[(2S,5S)-8-chloro-2,3-dihydro-2,5-methano-1,4-benzoxazepin-4(5H)-yl]-3,3-difluoro-2,2-dimethylpropan-1-one], 37 nM.
Turning to `CC(C)(C(=O)N1C[C@@H]2C[C@H]1c1ccc(C#N)cc1O2)C(F)F` [Compound 2-22, (2S,5S)-4-(3,3-difluoro-2,2-dimethylpropanoyl)-2,3,4,5-tetrahydro-2,5-methano-1,4-benzoxazepine-8-carbonitrile], the IC50 came out at 388 nM.
With `CC(C)(CC#N)C(=O)N1C[C@@H]2C[C@H]1c1ccc(Cl)cc1O2` [Compound 2-23, 4-((2S,5S)-8-chloro-2,3-dihydro-2,5-methanobenzo[f][1,4]oxaze-pin-4(5H)-yl)-3,3-dimethyl-4-oxobutanenitrile] the figure was 49 nM.
